Some results are limits rather than exact numbers.

As usually defined, the IC50 is the concentration that inhibits the measured activity by half.

The target of this experiment is T1, KRAS G12C and cRAF interaction (Homo sapiens, UniProt P01116, C118S/C51S/C80L/G12C).
T1 construct: truncated version comprising amino acids 1-169
T1 sequence (P01116 1-169 isoform P01116-2 G12C/C51S/C80L/C118S): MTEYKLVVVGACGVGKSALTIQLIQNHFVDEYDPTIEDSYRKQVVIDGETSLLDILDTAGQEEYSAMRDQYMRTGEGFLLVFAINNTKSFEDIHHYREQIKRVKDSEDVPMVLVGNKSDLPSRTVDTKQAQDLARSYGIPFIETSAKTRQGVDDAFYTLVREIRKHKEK
Description: Inhibition of KRAS G12C and cRAF binding (AlphaScreen). Particulars: KRAS G12C (Cys-light, aa 1-169) preloaded with GMPPNP, cRaf RBD (aa 50-131), 2 hours incubation. The experiment is classed as biochemical. An outline of the steps:
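Biotin-AviTag KRAS G12C (Cys-light C51S/C80L/C118S, aa 1-169, GMPPNP-loaded; 0.5 nM final)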
In general terms: Bead proximity is the source of the signal in Alpha formats.
In turn, `C=CC(=O)N1[C@H](C)CN(c2nc(OC[C@@]34CCCN3C[C@H](F)C4)nc3c(F)c(-c4cccc5ccc(F)c(F)c45)ncc23)CC12COC2` [Example 64, 1-((R)-8-(7-(7,8-difluoronaphthalen-1-yl)-8-fluoro-2-(((2R,7aS)-2-fluorotetrahydro-1H-pyrrolizin-7a(5H)-yl)methoxy)pyrido[4,3-d]pyrimidin-4-yl)-6-methyl-2-oxa-5,8-diazaspiro[3.5]nonan-5-yl) prop-2-en-1-one] showed a half-inhibitory concentration (IC50) of less than 10 nM.
Consider `C=CC(=O)N1CC(C)N(c2nc(OC[C@@]34CCCN3C[C@H](F)C4)nc3c(F)c(-c4cccc5cccc(Cl)c45)ncc23)CC12COC2` (some centres unmarked) [Example 65], for which the IC50 lay within 10 to 100 nM.
In the case of `C#Cc1c(F)ccc2cccc(-c3ncc4c(N5CCN(C(=O)/C=C/[C@H]6CCN6C)C6(COC6)C5)nc(OC[C@@]56CCCN5C[C@H](F)C6)nc4c3F)c12` [Example 66], the IC50 was in the range of 10 to 100 nM.
Regarding `CN1CC[C@@H]1/C=C/C(=O)N1CCN(c2nc(OC[C@@]34CCCN3C[C@H](F)C4)nc3c(F)c(-c4cccc5ccc(F)c(F)c45)ncc23)CC12COC2` [Example 67], the IC50 is 10 to 100 nM.
`O=C(/C=C/CN1C[C@H]2C[C@@H]1CO2)N1CCN(c2nc(OC[C@@]34CCCN3C[C@H](F)C4)nc3c(F)c(-c4cccc(Cl)c4C(F)(F)F)ncc23)CC12COC2` [Example 68, (E)-4-((1R,4R)-2-oxa-5-azabicyclo[2.2.1]heptan-5-yl)-1-(8-(7-(3-chloro-2-(trifluoromethyl)phenyl)-8-fluoro-2-(((2R,7aS)-2-fluorotetrahydro-1H-pyrrolizin-7a(5H)-yl)methoxy)pyrido[4,3-d]pyrimidin-4-yl)-2-oxa-5,8-diazaspiro[3.5]nonan-5-yl) but-2-en-1-one] registered an IC50 of less than 10 nM.
For `Cc1cc(/C=C/C(=O)N2CCN(c3nc(OC[C@@]45CCCN4C[C@H](F)C5)nc4c(F)c(-c5cccc(Cl)c5C(F)(F)F)ncc34)CC23COC3)nc(C)n1` [Example 69] the value was 100 to 500 nM.
The same measure for `C=CC(=O)N1[C@@H](C)CN(c2nc(OC[C@@]34CCCN3C[C@H](F)C4)nc3c(F)c(-c4cccc5ccc(F)c(F)c45)ncc23)CC12COC2` [Example 70]: no less than 500 nM; for `CN(C)C/C=C/C(=O)N1CCN(c2nc(OC[C@@]34CCCN3C[C@H](F)C4)nc3c(F)c(-c4cccc(Cl)c4C(F)(F)F)ncc23)CC12COC2` [Example 71]: 100 to 500 nM; for `C=CC(=O)N1[C@H](C)CN(c2nc(OC[C@@]34CCCN3C[C@H](F)C4)nc3c(F)c(-c4cccc5cccc(Cl)c45)ncc23)CC12COC2` [Example 72]: 100 to 500 nM.
For `CN1CC[C@@H]1/C=C/C(=O)N1CCN(c2nc(OC[C@@]34CCCN3C[C@H](F)C4)nc3c(F)c(-c4cc(O)cc(Cl)c4C4CC4)ncc23)CC12COC2` [Example 73, (E)-1-(8-(7-(3-chloro-2-cyclopropyl-5-hydroxyphenyl)-8-fluoro-2-(((2R,7aS)-2-fluorotetrahydro-1H-pyrrolizin-7a(5H)-yl)methoxy)pyrido[4,3-d]pyrimidin-4-yl)-2-oxa-5,8-diazaspiro[3.5]nonan-5-yl)-3-((R)-1-methylazetidin-2-yl) prop-2-en-1-one] the value was less than 10 nM.
With `C=CC(=O)N1[C@@H](C)CN(c2nc(OC[C@@]34CCCN3C[C@H](F)C4)nc3c(F)c(-c4cccc5cccc(Cl)c45)ncc23)CC12COC2` [Example 74], the IC50 is no less than 500 nM.
`C=CC(=O)N1CCN(c2nc(OC[C@@]34CCCN3C[C@H](F)C4)nc3c(F)c(-c4n[nH]c5cccc(Cl)c45)ncc23)CC12COC2` [Example 75] showed an IC50 of no less than 500 nM.
For `CN1CC[C@@H]1/C=C/C(=O)N1CCN(c2nc(OC[C@@]34CCCN3C[C@H](F)C4)nc3c(F)c(-c4cccc(Cl)c4C(F)(F)F)ncc23)CC12COC2` [Example 76] the value was no less than 500 nM.
In turn, `O=C(/C=C/CN1CC2CC(C1)O2)N1CCN(c2nc(OC[C@@]34CCCN3C[C@H](F)C4)nc3c(F)c(-c4cccc(Cl)c4C(F)(F)F)ncc23)CC12COC2` [Example 77] yielded a half-maximal inhibitory concentration (IC50) of 10 to 100 nM.

For the origin of these results see patent US20260207615A1, “FLUOROPYRIDOPYRIMIDINE AND FLUOROQUINAZOLINE DERIVATIES AND METHODS OF USE THEREOF” (Frontier Medicines Corporation, priority 2022, published 2026).
